Data as given in the supplement of paper PMC9663587.

Columns and labels:
Test in all cases: GRmax, 72 h; higher = less effect;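 also: breast cell lines in 384-well plates, nine doses across a 10^4 range, Dye Drop imaging of viable cells vs DMSO and time-zero plates, GR 0 means no net growth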
MDAMB361 = tested on: MDAMB361
SUM229PE = tested on: SUM229PE
MDAMB231 = tested on: MDAMB231
EVSAT = tested on: EVSAT
ZR751 = tested on: ZR751
SUM52PE = tested on: SUM52PE
SUM185PE = tested on: SUM185PE
AU565 = tested on: AU565
CAL851 = tested on: CAL851
HS578T = tested on: HS578T
MDAMB453 = tested on: MDAMB453
T47D = tested on: T47D
SUM44PE = tested on: SUM44PE

Structure (SMILES) | GRmax, 72 h (MDAMB361) | GRmax, 72 h (SUM229PE) | GRmax, 72 h (MDAMB231) | GRmax, 72 h (EVSAT) | GRmax, 72 h (ZR751) | GRmax, 72 h (SUM52PE) | GRmax, 72 h (SUM185PE) | GRmax, 72 h (AU565) | GRmax, 72 h (CAL851) | GRmax, 72 h (HS578T) | GRmax, 72 h (MDAMB453) | GRmax, 72 h (T47D) | GRmax, 72 h (SUM44PE)
CCC(=O)Nc1ccc(C(=O)Nc2ccc(Nc3ncc4c(n3)N(C)c3ccc(C)cc3C(=O)N4C)cc2)cc1 [FMF-03-145-1] | 0.286 GR | -0.209 GR | -0.0038 GR | -0.139 GR | 0.153 GR | 0.0118 GR | 0.205 GR | -0.153 GR | -0.136 GR | -0.183 GR | 0.0994 GR | -0.0373 GR | -0.0614 GR
COc1cc(N2CCN(C)CC2)ccc1Nc1ncc2c(n1)N(C)c1ccccc1C(=O)N2CC(F)(F)F [FMF-03-146-1] | 0.362 GR | 0.999 GR | 0.874 GR | 0.994 GR | 0.939 GR | 1.04 GR | 0.833 GR | 0.63 GR | 0.916 GR | 0.944 GR | 0.803 GR | 0.683 GR | 0.946 GR
CN1CC[C@H](c2c(O)cc(O)c3c(=O)cc(-c4ccccc4Cl)oc23)[C@H](O)C1 [Flavopiridol] (max 1 µM) | -0.389 GR | -0.181 GR | -0.441 GR | -0.514 GR | -0.353 GR | -0.193 GR | 0.155 GR | -0.69 GR | -0.223 GR | -0.256 GR | -0.188 GR | -0.134 GR | -0.573 GR
CC(C)n1nc(-c2ccc3oc(N)nc3c2)c2c(N)ncnc21 [INK128/MLN0128] (max 3.162 µM) | -0.846 GR | 0.219 GR | 0.101 GR | -0.31 GR | -0.0856 GR | -0.161 GR | 0.139 GR | -0.496 GR | 0.016 GR | -0.0708 GR | -0.468 GR | -0.0486 GR | -0.523 GR
CC(C)NC[C@@H](C(=O)N1CCN(c2ncnc3c2[C@H](C)C[C@H]3O)CC1)c1ccc(Cl)cc1 [Ipatasertib/GDC0068] (max 10 µM) | -0.58 GR | 0.499 GR | 0.925 GR | -0.311 GR | 0.608 GR | 0.271 GR | 0.455 GR | 0.274 GR | 0.471 GR | 0.442 GR | -0.155 GR | 0.133 GR | -0.0416 GR
CN(C)C(=O)c1cc2cnc(Nc3ccc(N4CCNCC4)cn3)nc2n1C1CCCC1 [LEE011/Ribociclib] (max 10 µM) | 0.0436 GR | 0.576 GR | 0.204 GR | 0.616 GR | 0.381 GR | 0.528 GR | 0.824 GR | 0.244 GR | 1.04 GR | 0.376 GR | 0.189 GR | 0.15 GR | 0.378 GR
